Columns and labels:
[1] = compound: NC(=O)CCCCC1CCSS1 [lipoamide]; test: thermal stability z-score vs DMSO; higher = more thermally stabilized by treatment; conditions: HeLa, lipoamide concentration 100 µM
Protocol: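 Cellular thermal proteome profiling in HeLa cells. Cells were treated with 100 µM lipoamide for 1 h, with or without 1 mM arsenate for a further 1 h, then heated to ten temperatures (37-66.3 °C), and soluble protein was quantified by TMT mass spectrometry relative to 0.1% DMSO controls. The thermal stability score (sum of log2 fold changes minus the abundance score) was transformed to a z-score; mean of n = 3 experiments.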

[2] = compound: O=[As]([O-])(O)O.[K+] [potassium arsenate]; test: as above; conditions: HeLa; arsenate concentration 1 mM
Protocol: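 Cellular thermal proteome profiling in HeLa cells treated with 1 mM arsenate for 1 h (DMSO pretreatment), heated to ten temperatures (37-66.3 °C). Soluble protein was quantified by TMT mass spectrometry relative to DMSO controls; the thermal stability score was transformed to a z-score; mean of n = 3 experiments.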

[3] = arsenate co-treatment: 1 mM arsenate 1 h
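Note: each temperature applied for 3 min, abundance score taken as mean log2 fold change at the two lowest temperatures, z-score obtained by mean subtraction and division by SD.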

UniProt Q96FJ0, sequence (Q96FJ0 whole entry): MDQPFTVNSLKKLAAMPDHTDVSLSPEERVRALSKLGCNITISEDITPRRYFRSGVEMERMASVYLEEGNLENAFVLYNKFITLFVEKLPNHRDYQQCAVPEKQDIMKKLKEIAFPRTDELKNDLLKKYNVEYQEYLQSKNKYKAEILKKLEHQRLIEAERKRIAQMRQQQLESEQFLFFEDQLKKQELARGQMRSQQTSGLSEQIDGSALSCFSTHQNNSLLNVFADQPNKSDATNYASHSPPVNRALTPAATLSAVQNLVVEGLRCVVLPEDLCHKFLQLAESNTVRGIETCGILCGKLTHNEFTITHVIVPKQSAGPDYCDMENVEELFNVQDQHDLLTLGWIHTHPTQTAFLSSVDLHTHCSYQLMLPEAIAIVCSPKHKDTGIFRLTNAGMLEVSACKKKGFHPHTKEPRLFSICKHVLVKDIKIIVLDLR
UniProt P23497, sequence (P23497 whole entry): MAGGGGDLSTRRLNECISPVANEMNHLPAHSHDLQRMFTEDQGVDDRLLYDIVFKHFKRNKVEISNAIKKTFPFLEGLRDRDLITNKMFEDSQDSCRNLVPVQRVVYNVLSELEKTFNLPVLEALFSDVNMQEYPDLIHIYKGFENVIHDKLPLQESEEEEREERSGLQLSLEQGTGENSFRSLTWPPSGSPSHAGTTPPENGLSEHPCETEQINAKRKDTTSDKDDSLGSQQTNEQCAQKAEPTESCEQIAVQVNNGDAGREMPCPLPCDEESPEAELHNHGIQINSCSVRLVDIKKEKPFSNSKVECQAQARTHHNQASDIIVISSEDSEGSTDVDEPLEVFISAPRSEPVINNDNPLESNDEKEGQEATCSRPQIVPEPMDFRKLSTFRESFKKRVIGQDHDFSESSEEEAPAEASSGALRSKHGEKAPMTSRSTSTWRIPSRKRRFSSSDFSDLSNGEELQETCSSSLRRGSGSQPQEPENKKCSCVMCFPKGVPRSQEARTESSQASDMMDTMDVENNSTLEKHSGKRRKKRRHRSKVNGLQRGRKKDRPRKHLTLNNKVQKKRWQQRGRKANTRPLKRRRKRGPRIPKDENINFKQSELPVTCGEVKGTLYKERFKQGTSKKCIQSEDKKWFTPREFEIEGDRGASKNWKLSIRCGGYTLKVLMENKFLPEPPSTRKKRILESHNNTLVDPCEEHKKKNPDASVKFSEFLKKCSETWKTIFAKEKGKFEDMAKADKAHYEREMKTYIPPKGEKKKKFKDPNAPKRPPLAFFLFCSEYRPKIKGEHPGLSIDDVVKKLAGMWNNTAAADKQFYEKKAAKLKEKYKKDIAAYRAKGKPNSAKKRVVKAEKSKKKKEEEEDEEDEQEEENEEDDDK
UniProt O75150, sequence (O75150 whole entry): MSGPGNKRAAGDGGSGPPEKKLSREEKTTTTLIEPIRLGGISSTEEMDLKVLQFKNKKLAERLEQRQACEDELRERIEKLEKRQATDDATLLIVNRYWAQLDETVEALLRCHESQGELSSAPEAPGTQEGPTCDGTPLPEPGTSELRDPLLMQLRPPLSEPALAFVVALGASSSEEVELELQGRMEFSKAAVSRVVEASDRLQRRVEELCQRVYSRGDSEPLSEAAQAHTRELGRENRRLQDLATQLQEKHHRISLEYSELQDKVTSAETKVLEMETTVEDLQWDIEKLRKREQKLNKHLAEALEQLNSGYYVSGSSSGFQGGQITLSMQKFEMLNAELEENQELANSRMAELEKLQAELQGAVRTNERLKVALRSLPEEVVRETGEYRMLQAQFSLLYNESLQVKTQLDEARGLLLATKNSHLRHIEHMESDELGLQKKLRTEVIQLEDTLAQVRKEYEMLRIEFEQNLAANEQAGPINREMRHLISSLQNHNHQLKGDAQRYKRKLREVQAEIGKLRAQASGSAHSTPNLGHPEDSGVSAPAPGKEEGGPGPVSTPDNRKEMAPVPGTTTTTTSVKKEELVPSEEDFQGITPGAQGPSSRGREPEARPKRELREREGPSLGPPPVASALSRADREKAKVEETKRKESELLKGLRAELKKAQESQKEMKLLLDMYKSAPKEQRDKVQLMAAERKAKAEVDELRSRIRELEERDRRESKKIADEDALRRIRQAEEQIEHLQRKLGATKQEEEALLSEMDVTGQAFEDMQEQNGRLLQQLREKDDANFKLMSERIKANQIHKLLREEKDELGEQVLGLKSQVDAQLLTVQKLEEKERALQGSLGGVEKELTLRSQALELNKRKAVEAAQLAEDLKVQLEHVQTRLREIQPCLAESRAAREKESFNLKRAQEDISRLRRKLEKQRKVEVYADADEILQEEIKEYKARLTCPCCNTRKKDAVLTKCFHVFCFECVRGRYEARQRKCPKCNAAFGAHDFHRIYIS
UniProt P01130, sequence (P01130 whole entry): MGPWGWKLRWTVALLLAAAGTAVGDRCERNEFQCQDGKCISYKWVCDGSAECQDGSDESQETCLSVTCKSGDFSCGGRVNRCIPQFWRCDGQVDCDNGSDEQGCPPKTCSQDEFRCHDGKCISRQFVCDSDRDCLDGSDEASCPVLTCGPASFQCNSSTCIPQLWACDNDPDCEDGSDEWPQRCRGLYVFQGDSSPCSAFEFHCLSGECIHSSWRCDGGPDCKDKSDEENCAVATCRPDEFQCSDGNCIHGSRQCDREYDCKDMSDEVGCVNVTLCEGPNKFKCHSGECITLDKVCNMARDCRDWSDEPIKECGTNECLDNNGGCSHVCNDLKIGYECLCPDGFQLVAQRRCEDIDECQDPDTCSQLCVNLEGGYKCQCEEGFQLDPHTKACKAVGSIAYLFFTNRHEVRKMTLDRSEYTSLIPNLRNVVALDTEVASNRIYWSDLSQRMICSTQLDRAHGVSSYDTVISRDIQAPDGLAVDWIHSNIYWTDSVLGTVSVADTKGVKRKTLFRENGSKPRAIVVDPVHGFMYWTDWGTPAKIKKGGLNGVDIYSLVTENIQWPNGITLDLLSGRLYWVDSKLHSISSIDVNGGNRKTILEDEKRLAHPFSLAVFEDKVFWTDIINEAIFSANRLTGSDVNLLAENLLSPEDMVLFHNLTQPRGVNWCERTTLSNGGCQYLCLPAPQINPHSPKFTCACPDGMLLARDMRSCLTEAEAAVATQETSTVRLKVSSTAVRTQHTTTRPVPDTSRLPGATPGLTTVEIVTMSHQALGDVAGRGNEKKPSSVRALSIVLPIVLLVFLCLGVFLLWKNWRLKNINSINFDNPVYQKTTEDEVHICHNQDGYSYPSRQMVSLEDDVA
UniProt Q9UK22, sequence (Q9UK22 whole entry): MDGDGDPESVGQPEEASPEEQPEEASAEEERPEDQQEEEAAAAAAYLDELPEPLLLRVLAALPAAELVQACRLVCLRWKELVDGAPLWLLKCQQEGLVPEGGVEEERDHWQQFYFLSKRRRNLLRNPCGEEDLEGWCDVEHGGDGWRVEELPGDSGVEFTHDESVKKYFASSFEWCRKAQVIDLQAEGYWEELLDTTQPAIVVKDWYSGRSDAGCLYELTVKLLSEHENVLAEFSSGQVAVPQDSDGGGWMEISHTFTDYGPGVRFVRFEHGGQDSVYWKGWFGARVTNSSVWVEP
UniProt P98179, sequence (P98179 whole entry): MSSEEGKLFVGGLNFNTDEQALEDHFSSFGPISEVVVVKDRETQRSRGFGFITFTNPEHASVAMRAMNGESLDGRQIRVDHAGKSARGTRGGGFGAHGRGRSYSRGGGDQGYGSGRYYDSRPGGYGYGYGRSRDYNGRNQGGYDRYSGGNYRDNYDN
UniProt P61081, sequence (P61081 whole entry): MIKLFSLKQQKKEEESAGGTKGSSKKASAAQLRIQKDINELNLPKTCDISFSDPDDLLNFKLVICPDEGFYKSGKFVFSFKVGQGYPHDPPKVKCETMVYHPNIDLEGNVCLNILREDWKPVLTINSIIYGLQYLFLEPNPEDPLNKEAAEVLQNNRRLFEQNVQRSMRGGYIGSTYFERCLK
UniProt Q15014, sequence (Q15014 whole entry): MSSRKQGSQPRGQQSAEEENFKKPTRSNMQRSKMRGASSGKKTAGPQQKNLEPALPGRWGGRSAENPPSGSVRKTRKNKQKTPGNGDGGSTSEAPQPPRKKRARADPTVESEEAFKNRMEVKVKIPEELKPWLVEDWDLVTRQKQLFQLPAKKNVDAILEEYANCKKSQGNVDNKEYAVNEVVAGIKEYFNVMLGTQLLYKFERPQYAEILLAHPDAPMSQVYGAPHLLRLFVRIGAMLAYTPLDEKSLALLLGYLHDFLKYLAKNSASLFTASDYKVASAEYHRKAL
UniProt O15460, sequence (O15460 whole entry): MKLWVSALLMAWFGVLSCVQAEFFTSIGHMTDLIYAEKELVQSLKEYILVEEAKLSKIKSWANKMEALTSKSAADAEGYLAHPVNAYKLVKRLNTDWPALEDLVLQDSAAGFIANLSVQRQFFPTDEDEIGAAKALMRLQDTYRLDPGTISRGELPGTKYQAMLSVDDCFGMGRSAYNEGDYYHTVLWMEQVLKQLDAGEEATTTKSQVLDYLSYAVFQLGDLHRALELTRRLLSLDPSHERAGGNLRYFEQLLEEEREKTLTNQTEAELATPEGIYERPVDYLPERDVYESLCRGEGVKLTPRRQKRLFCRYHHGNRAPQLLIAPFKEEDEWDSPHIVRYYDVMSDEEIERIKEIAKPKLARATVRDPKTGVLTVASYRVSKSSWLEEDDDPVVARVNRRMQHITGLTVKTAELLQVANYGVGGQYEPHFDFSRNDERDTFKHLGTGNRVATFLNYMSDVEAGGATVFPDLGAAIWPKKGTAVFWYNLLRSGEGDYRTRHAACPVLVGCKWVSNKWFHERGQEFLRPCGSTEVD
UniProt Q9Y4Z0, sequence (Q9Y4Z0 whole entry): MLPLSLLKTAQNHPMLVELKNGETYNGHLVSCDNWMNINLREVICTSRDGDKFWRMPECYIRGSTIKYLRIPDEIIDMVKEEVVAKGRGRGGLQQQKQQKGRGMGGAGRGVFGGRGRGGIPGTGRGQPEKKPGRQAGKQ
UniProt P62310, sequence (P62310 whole entry): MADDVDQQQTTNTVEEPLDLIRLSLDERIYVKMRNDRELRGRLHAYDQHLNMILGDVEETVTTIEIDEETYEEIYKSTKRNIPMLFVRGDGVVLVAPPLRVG

For ZHX3 (UniProt Q9H4I2), the thermal stability z-score [1, 3] was -0.187, the thermal stability z-score ([1]; arsenate co-treatment: none) was -0.116 and the thermal stability z-score [2] was -0.227.

Target LSS (UniProt P48449) has a thermal stability z-score [1, 3] of 0.724, a thermal stability z-score ([1]; arsenate co-treatment: none) of 0.345 and a thermal stability z-score [2] of -0.00616.

In the case of MED25 (UniProt Q71SY5), the thermal stability z-score [1, 3] is reported as -0.264, the thermal stability z-score ([1]; arsenate co-treatment: none) is reported as -0.252 and the thermal stability z-score [2] is reported as 0.0488.

With LDAH (UniProt Q9H6V9) the thermal stability z-score [1, 3] was -0.0856, the thermal stability z-score ([1]; arsenate co-treatment: none) was -0.00844 and the thermal stability z-score [2] was 0.0377.

Work on FAM49B (UniProt Q9NUQ9) yielded a thermal stability z-score [1, 3] of 0.4, a thermal stability z-score ([1]; arsenate co-treatment: none) of 0.0941 and a thermal stability z-score [2] of 0.0541.

RPA2 (UniProt P15927) gave a thermal stability z-score [1, 3] of -0.131, a thermal stability z-score ([1]; arsenate co-treatment: none) of -0.662 and a thermal stability z-score [2] of 0.659.

P4HA2 (UniProt O15460) showed a thermal stability z-score [1, 3] of -3.73, a thermal stability z-score ([1]; arsenate co-treatment: none) of -3.49 and a thermal stability z-score [2] of 0.573.

UBR3 (UniProt Q6ZT12) gave a thermal stability z-score [1, 3] of 0.0839, a thermal stability z-score ([1]; arsenate co-treatment: none) of 0.139 and a thermal stability z-score [2] of -0.007.

Target RPL3 (UniProt P39023) has a thermal stability z-score [1, 3] of 0.408, a thermal stability z-score ([1]; arsenate co-treatment: none) of -0.0552 and a thermal stability z-score [2] of -0.75.

With AMBRA1 (UniProt Q9C0C7) the thermal stability z-score [1, 3] was 0.0433, the thermal stability z-score ([1]; arsenate co-treatment: none) was 0.0956 and the thermal stability z-score [2] was 0.446.

Work on TMTC3 (UniProt Q6ZXV5) yielded a thermal stability z-score [1, 3] of -1.23, a thermal stability z-score ([1]; arsenate co-treatment: none) of -0.796 and a thermal stability z-score [2] of 0.605.

RPL23 (UniProt P62829) was tested, and the thermal stability z-score [1, 3] was 0.548, the thermal stability z-score ([1]; arsenate co-treatment: none) was -0.122 and the thermal stability z-score [2] was -0.839.

BCOR (UniProt Q6W2J9) showed a thermal stability z-score [1, 3] of 0.0203, a thermal stability z-score ([1]; arsenate co-treatment: none) of 0.0502 and a thermal stability z-score [2] of -0.011.

For DHPS (UniProt P49366), the thermal stability z-score [1, 3] was 0.538, the thermal stability z-score ([1]; arsenate co-treatment: none) was 0.536 and the thermal stability z-score [2] was 0.603.

For THOC5 (UniProt Q13769), the thermal stability z-score [1, 3] was 0.945, the thermal stability z-score ([1]; arsenate co-treatment: none) was 0.187 and the thermal stability z-score [2] was 0.536.

In the case of RBM3 (UniProt P98179), the thermal stability z-score [1, 3] is reported as 0.0805, the thermal stability z-score ([1]; arsenate co-treatment: none) is reported as -0.138 and the thermal stability z-score [2] is reported as 0.167.

TRIM56 (UniProt Q9BRZ2) was tested, and the thermal stability z-score [1, 3] was -0.0694, the thermal stability z-score ([1]; arsenate co-treatment: none) was -0.839 and the thermal stability z-score [2] was -3.98.

ACSF2 (UniProt Q96CM8) was tested, and the thermal stability z-score [1, 3] was -0.634, the thermal stability z-score ([1]; arsenate co-treatment: none) was -0.524 and the thermal stability z-score [2] was -0.301.

STAMBPL1 (UniProt Q96FJ0) showed a thermal stability z-score [1, 3] of 0.417, a thermal stability z-score ([1]; arsenate co-treatment: none) of 0.511 and a thermal stability z-score [2] of 1.05.

Work on EXOSC3 (UniProt Q9NQT5) yielded a thermal stability z-score [1, 3] of 0.273, a thermal stability z-score ([1]; arsenate co-treatment: none) of -0.000548 and a thermal stability z-score [2] of -0.385.

For TRMT10A (UniProt Q8TBZ6), the thermal stability z-score [1, 3] was -0.927, the thermal stability z-score ([1]; arsenate co-treatment: none) was -0.427 and the thermal stability z-score [2] was 0.266.

With IPO5 (UniProt O00410) the thermal stability z-score [1, 3] was 0.21, the thermal stability z-score ([1]; arsenate co-treatment: none) was -0.103 and the thermal stability z-score [2] was -0.498.

Work on EIF4H (UniProt Q15056) yielded a thermal stability z-score [1, 3] of 0.493, a thermal stability z-score ([1]; arsenate co-treatment: none) of 0.714 and a thermal stability z-score [2] of 0.688.

Work on FBXO2 (UniProt Q9UK22) yielded a thermal stability z-score [1, 3] of -0.743, a thermal stability z-score ([1]; arsenate co-treatment: none) of 0.137 and a thermal stability z-score [2] of 0.0529.

For PIP4K2A (UniProt P48426), the thermal stability z-score [1, 3] was 0.195, the thermal stability z-score ([1]; arsenate co-treatment: none) was 0.103 and the thermal stability z-score [2] was -0.102.

MORF4L2 (UniProt Q15014) gave a thermal stability z-score [1, 3] of -0.451, a thermal stability z-score ([1]; arsenate co-treatment: none) of -0.148 and a thermal stability z-score [2] of -0.58.

In the case of UBE2M (UniProt P61081), the thermal stability z-score [1, 3] is reported as 0.533, the thermal stability z-score ([1]; arsenate co-treatment: none) is reported as 0.463 and the thermal stability z-score [2] is reported as -0.416.

SP100 (UniProt P23497) gave a thermal stability z-score [1, 3] of 3.43, a thermal stability z-score ([1]; arsenate co-treatment: none) of 0.96 and a thermal stability z-score [2] of 4.5.

Target NDUFS2 (UniProt O75306) has a thermal stability z-score [1, 3] of -0.481, a thermal stability z-score ([1]; arsenate co-treatment: none) of -0.617 and a thermal stability z-score [2] of -0.577.

Work on SAFB (UniProt Q15424) yielded a thermal stability z-score [1, 3] of 2.61, a thermal stability z-score ([1]; arsenate co-treatment: none) of 0.651 and a thermal stability z-score [2] of 0.0324.

LMAN2L (UniProt Q9H0V9) gave a thermal stability z-score [1, 3] of -2.57, a thermal stability z-score ([1]; arsenate co-treatment: none) of -1.5 and a thermal stability z-score [2] of 0.373.

SERPINB8 (UniProt P50452) was tested, and the thermal stability z-score [1, 3] was 0.899, the thermal stability z-score ([1]; arsenate co-treatment: none) was 0.458 and the thermal stability z-score [2] was -1.08.

Target ASF1A (UniProt Q9Y294) has a thermal stability z-score [1, 3] of -0.132, a thermal stability z-score ([1]; arsenate co-treatment: none) of -0.202 and a thermal stability z-score [2] of -0.103.

With LSM4 (UniProt Q9Y4Z0) the thermal stability z-score [1, 3] was 0.426, the thermal stability z-score ([1]; arsenate co-treatment: none) was 0.265 and the thermal stability z-score [2] was 0.216.

TCAF1 (UniProt Q9Y4C2) gave a thermal stability z-score [1, 3] of 0.246, a thermal stability z-score ([1]; arsenate co-treatment: none) of 0.355 and a thermal stability z-score [2] of 0.396.

SLC7A6 (UniProt Q92536) was tested, and the thermal stability z-score [1, 3] was -0.86, the thermal stability z-score ([1]; arsenate co-treatment: none) was -0.83 and the thermal stability z-score [2] was -0.695.

For RHEB (UniProt Q15382), the thermal stability z-score [1, 3] was -0.13, the thermal stability z-score ([1]; arsenate co-treatment: none) was 0.625 and the thermal stability z-score [2] was 1.46.

OXSR1 (UniProt O95747) showed a thermal stability z-score [1, 3] of 0.903, a thermal stability z-score ([1]; arsenate co-treatment: none) of 0.68 and a thermal stability z-score [2] of -0.408.

Target LDLR (UniProt P01130) has a thermal stability z-score [1, 3] of 0.0821, a thermal stability z-score ([1]; arsenate co-treatment: none) of -0.206 and a thermal stability z-score [2] of -0.0946.

KAT7 (UniProt O95251) showed a thermal stability z-score [1, 3] of 0.116, a thermal stability z-score ([1]; arsenate co-treatment: none) of -0.0536 and a thermal stability z-score [2] of -0.144.

Work on TRMU (UniProt O75648) yielded a thermal stability z-score [1, 3] of -0.59, a thermal stability z-score ([1]; arsenate co-treatment: none) of -0.509 and a thermal stability z-score [2] of -0.558.

LSM3 (UniProt P62310) was tested, and the thermal stability z-score [1, 3] was 0.229, the thermal stability z-score ([1]; arsenate co-treatment: none) was -0.327 and the thermal stability z-score [2] was -0.624.

With PIK3C2B (UniProt O00750) the thermal stability z-score [1, 3] was 0.468, the thermal stability z-score ([1]; arsenate co-treatment: none) was 0.832 and the thermal stability z-score [2] was 0.971.

For ARHGEF10 (UniProt O15013), the thermal stability z-score [1, 3] was -0.746, the thermal stability z-score ([1]; arsenate co-treatment: none) was -0.324 and the thermal stability z-score [2] was 0.964.

NDUFAF3 (UniProt Q9BU61) was tested, and the thermal stability z-score [1, 3] was -0.122, the thermal stability z-score ([1]; arsenate co-treatment: none) was -0.105 and the thermal stability z-score [2] was -0.147.

TSC22D4 (UniProt Q9Y3Q8) was tested, and the thermal stability z-score [1, 3] was -1.89, the thermal stability z-score ([1]; arsenate co-treatment: none) was -0.035 and the thermal stability z-score [2] was -0.0991.

ARHGAP18 (UniProt Q8N392) was tested, and the thermal stability z-score [1, 3] was 1.13, the thermal stability z-score ([1]; arsenate co-treatment: none) was 1.59 and the thermal stability z-score [2] was 1.21.

Work on UBA52 (UniProt P62987) yielded a thermal stability z-score [1, 3] of 1.26, a thermal stability z-score ([1]; arsenate co-treatment: none) of 1.15 and a thermal stability z-score [2] of -0.00358.

BAIAP2L1 (UniProt Q9UHR4) was tested, and the thermal stability z-score [1, 3] was 0.0217, the thermal stability z-score ([1]; arsenate co-treatment: none) was -0.166 and the thermal stability z-score [2] was 0.177.

With LPCAT1 (UniProt Q8NF37) the thermal stability z-score [1, 3] was -0.369, the thermal stability z-score ([1]; arsenate co-treatment: none) was -0.129 and the thermal stability z-score [2] was 0.149.

Work on DCAF15 (UniProt Q66K64) yielded a thermal stability z-score [1, 3] of 0.165, a thermal stability z-score ([1]; arsenate co-treatment: none) of -0.178 and a thermal stability z-score [2] of -0.174.

Target ANTXR1 (UniProt Q9H6X2) has a thermal stability z-score [1, 3] of 0.0337, a thermal stability z-score ([1]; arsenate co-treatment: none) of -0.146 and a thermal stability z-score [2] of 0.283.

For AHNAK (UniProt Q09666), the thermal stability z-score [1, 3] was 1.35, the thermal stability z-score ([1]; arsenate co-treatment: none) was 1.69 and the thermal stability z-score [2] was 2.03.

With RNF40 (UniProt O75150) the thermal stability z-score [1, 3] was 0.453, the thermal stability z-score ([1]; arsenate co-treatment: none) was 0.161 and the thermal stability z-score [2] was 0.711.

For TOR1AIP2, the thermal stability z-score [1, 3] was -3.46, the thermal stability z-score ([1]; arsenate co-treatment: none) was -2.77 and the thermal stability z-score [2] was -0.134.

Source: the supplement of paper PMC12463676, “Small-molecule dissolution of stress granules by redox modulation benefits ALS models” (Nature Chemical Biology, 2025)
